ChEMBL document CHEMBL5653610, “The novel phosphodiesterase 10A inhibitor THPP-1 has antipsychotic-like effects in rat and improves cognition in rat and rhesus monkey” (Neuropharmacology, 2013)
Active and inactive are the calls of the source. The calls are words filed in the database; no cut-off is given here.

Key:
Rattus norvegicus [1] = assay: In-vivo increase of GluR1 S845 phosphorylation in membrane fraction of Wistar Hannover rat striatal tissues at 3 to 30 mg/kg, po after 2 hrs by Western blot analysis; type: functional, organism-based; settings: Striatum, dose 3-30 mg/kg
Rattus norvegicus [2] = assay: Antipsychotic activity in Wistar Hannover rat assessed as reduction in MK-801-induced psychomotor activity at 1.5 to 4.5 mg/kg, po dosed 120 mins before MK-801 challenge and measured after 180 mins; type: functional, organism-based; settings: dose 1.5-4.5 mg/kg, time 300.0 min
[3] = Total drug level in Wistar Hannover rat plasma at 1 mg/kg, po after 2 hrs by UPLC-MS analysis; type: ADME, organism-based
Rattus norvegicus [4] = assay: Reduction in object exploration in Wistar Hannover rat at 1 mg/kg, po dosed 90 mins before identical objects by novel object recognition test; type: functional, organism-based
Rhesus monkey = assay: Antipsychotic activity in rhesus monkey assessed as attenuation of ketamine impaired performance on difficult trials at 3 mg/kg, po dosed for 4 days prior to testing and on day 5 drug was administered orally 2 h prior to testing by object retrieval detour task; type: functional, organism-based; settings: Macaca mulatta, time 4.0 day
Rattus norvegicus [5] = assay: Antipsychotic activity in Wistar Hannover rat assessed as increase in recognition at 1 mg/kg, po dosed 90 mins before identical objects by novel object recognition test; type: functional, organism-based
[6] = Bioavailability in orally dosed rat after 2 hrs by UPLC-MS analysis; type: ADME, organism-based; settings: in vivo, route po
[7] = Half life in orally dosed rhesus monkey after 4 hrs by UPLC-MS analysis; type: ADME, organism-based, Macaca mulatta; settings: in vivo, route po
[8] = Total drug level in Wistar Hannover rat plasma at 0.1 mg/kg, po after 2 hrs by UPLC-MS analysis; type: ADME, organism-based
[9] = Total drug level in plasma of Wistar Hannover rat not-engaged in object retrieval detour task at 10 mg/kg, po dosed for 4 days prior to testing and on day 5 drug was administered orally 2 h prior to testing and measured after 4 hrs by UPLC-MS analysis; type: ADME, organism-based; settings: time 5 day
[10] = Unbound drug level in plasma of Wistar Hannover rat engaged in object retrieval detour task at 3 mg/kg, po dosed for 4 days prior to testing and on day 5 drug was administered orally 2 h prior to testing and measured after 4 hrs by UPLC-MS analysis; type: ADME, organism-based; settings: in vivo, 120 h, time 5 day
[11] = Unbound drug level in Wistar Hannover rat plasma at 10 mg/kg, po after 2 hrs by UPLC-MS analysis; type: ADME, organism-based; settings: in vivo
Rattus norvegicus [12] = assay: In-vivo increase of GluR1 S845 phosphorylation in membrane fraction of Wistar Hannover rat striatal tissues at 30 mg/kg, po after 2 hrs by Western blot analysis relative to control; type: functional, Striatum
Rattus norvegicus [13] = assay: Effect on phosphorylation of proteins in other brain regions (prefrontal cortex and hippocampus) in Wistar Hannover rat at 3 to 30 mg/kg, po by Western blot analysis; type: functional, organism-based; settings: dose 3-30 mg/kg
[14] = Drug level in Wistar Hannover rat CSF at 1 mg/kg, po after 2 hrs by UPLC-MS analysis; type: ADME, organism-based, Cerebrospinal fluid; settings: read-out: Drug uptake
Rattus norvegicus [15] = assay: In-vivo increase of pGluR1/GluR1 ratios in membrane fraction of Wistar Hannover rat striatal tissues at 3 to 30 mg/kg, po after 2 hrs by Western blot analysis; type: functional, organism-based; settings: Striatum, dose 3-30 mg/kg
[16] = Drug level in Wistar Hannover rat CSF at 0.1 mg/kg, po after 2 hrs by UPLC-MS analysis; type: ADME, organism-based, Cerebrospinal fluid; settings: read-out: Drug uptake
[17] = Total drug level in Wistar Hannover rat plasma at 30 mg/kg, po after 2 hrs by UPLC-MS analysis; type: ADME, organism-based
[18] = Drug level in Wistar Hannover rat CSF at 3 mg/kg, po after 2 hrs by UPLC-MS analysis; type: ADME, organism-based, Cerebrospinal fluid; settings: read-out: Drug uptake
[19] = Unbound drug level in plasma of Wistar Hannover rat not-engaged in object retrieval detour task at 10 mg/kg, po dosed for 4 days prior to testing and on day 5 drug was administered orally 2 h prior to testing and measured after 4 hrs by UPLC-MS analysis; type: ADME, organism-based; settings: in vivo, 120 h, time 5 day
[20] = Protein binding in orally dosed rat plasma after 2 hrs by UPLC-MS analysis; type: ADME, organism-based; settings: route po, read-out: PPB (converted)
[21] = Total drug level in Wistar Hannover rat plasma at 10 mg/kg, po after 2 hrs by UPLC-MS analysis; type: ADME, organism-based
[22] = biological target: T1, cAMP and cAMP-inhibited cGMP 3',5'-cyclic phosphodiesterase 10A (Rattus norvegicus, UniProt Q9QYJ6); assay: Inhibition of rat PDE10A2 assessed as inhibition of cAMP hydrolysis by fluorescence polarization assay
T1 sequence (Q9QYJ6 whole entry): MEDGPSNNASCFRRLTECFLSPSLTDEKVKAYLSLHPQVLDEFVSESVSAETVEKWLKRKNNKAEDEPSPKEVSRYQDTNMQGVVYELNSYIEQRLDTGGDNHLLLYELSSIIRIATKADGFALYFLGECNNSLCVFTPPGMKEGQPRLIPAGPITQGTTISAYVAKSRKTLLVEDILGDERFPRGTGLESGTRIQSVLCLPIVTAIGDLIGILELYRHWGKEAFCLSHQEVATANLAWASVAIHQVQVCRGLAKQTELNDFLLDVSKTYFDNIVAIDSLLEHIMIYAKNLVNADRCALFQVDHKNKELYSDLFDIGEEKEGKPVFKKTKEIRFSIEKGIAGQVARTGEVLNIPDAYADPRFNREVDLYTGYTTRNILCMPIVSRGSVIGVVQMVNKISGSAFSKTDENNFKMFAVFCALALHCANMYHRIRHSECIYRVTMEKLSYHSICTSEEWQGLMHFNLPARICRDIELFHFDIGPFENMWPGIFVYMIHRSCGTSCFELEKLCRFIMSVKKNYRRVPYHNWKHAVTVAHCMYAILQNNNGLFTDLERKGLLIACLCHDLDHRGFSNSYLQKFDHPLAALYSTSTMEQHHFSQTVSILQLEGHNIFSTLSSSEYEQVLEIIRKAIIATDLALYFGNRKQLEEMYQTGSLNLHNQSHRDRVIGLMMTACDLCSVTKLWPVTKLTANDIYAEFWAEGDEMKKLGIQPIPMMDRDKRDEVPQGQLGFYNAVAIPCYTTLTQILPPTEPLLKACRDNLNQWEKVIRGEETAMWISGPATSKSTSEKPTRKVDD

Rattus norvegicus [23] = assay: Effect on concentration of cyclic nucleotides in Wistar Hannover rat striatal tissues at 3 to 30 mg/kg, po by Western blot analysis; type: functional, organism-based; settings: Striatum, dose 3-30 mg/kg
[24] = Clearance in orally dosed rat after 2 hrs by UPLC-MS analysis; type: ADME, organism-based; settings: in vivo, route po
[25] = Unbound drug level in plasma of Wistar Hannover rat engaged in object retrieval detour task at 10 mg/kg, po dosed for 4 days prior to testing and on day 5 drug was administered orally 2 h prior to testing and measured after 4 hrs by UPLC-MS analysis; type: ADME, organism-based; settings: in vivo, 120 h, time 5 day
Rattus norvegicus [26] = assay: Reduction in locomotor activity in Wistar Hannover rat at 1 mg/kg, po dosed 90 mins before identical objects by novel object recognition test; type: functional, organism-based

- concentration at 2 h [3]: 270 nM
- bioavailability [6]: 47%
- half-life [7]: 1.4 h
- concentration at 2 h [8]: 32 nM
- concentration at 120 h [9]: 2820 nM
- Cp(f) [10]: 7 nM
- Cp(f) [11]: 23.8 nM
- concentration at 2 h [14]: 4.2 nM
- concentration at 2 h [16]: 1 nM
- concentration at 2 h [17]: 1800 nM
- concentration at 2 h [18]: 8.3 nM
- Cp(f) [19]: 34 nM
- fraction unbound at 2 h [20]: 0.018
- concentration at 2 h [21]: 1320 nM
- Ki [22]: 1.3 nM
- CL/F [24]: 6 mL/min/kg
- Cp(f) [25]: 19 nM
SMILES: COCCOc1nc(-c2ccc(Cl)nc2)nc2c1CN(C(=O)c1ncn3ccccc13)CC2 [THPP-1]
- Activity (Rattus norvegicus [1]): Dose-Dependent Effect
- Activity (Rattus norvegicus [2]): Dose-Dependent Effect
- Activity (Rattus norvegicus [4]): Active
- Activity (Rhesus monkey): Active
- Activity (Rattus norvegicus [5]): Active
- fold change (FC) (Rattus norvegicus [12]): 9.5
- Activity (Rattus norvegicus [13]): inactive
- Activity (Rattus norvegicus [15]): Active
- Activity (Rattus norvegicus [23]): inactive
- Activity (Rattus norvegicus [26]): Active
